Assay results reported in patent US5428031A, “Methods of treating cardiac arrhythmia” (priority 1993, dated 1995).
pIC50: −log10 of the molar value.

Legend:
[1] = system: conscious dogs; assay: electrocardiographic QT interval in conscious dogs, oral; type: in vivo, dog
Description: Trained, female mongrel dogs, in the weight range of 8 to 16 kg and instruimented with chronic arterial access ports, were deprived of food 18 to 24 hours prior to the study. At test time, the dog was placed in an Alice King Chatham nylon mesh sling for light restraint. Four Grass Instrument Co. Type E2 Platinum Subdermal Electrodes were affixed to the limbs of the dog and connected to a Hewlett-Packard 4700A Cardiograph multi-lead electrocardiogram (ECG) recorder. After approximately a 30-minute stabilization period, one or two pretreatment Lead II ECG tracings were taken over approximately a 30-second interval. Dogs were then dosed via gavage with labrafil (vehicle) or test compound. The volume, administered was 2.0 ml/kg followed by a 15 ml tap-water flush. Lead II ECG recordings were obtained at 15, 30, and 60 minutes and every 30 minutes thereafter for five hours post-drug administration. Dogs were also monitored for blood pressure changes via a Modular Instruments data acquisition system and transducer connected to the arterial access port. Final ECG traces were taken at approximately 24 hours post-treatment. Average QT interval lengths were determined for each time point and QTc values were calculated to correct for variations in heart rate (QTc =QT/√R-R).

[2] = biological target: T1, IKr (rapidly activating delayed rectifier K+ current) (Cavia porcellus, UniProt O08703); assay: voltage clamp measurement of IKr block in isolated guinea pig ventricular myocytes; type: cell-based
T1 construct: Guinea pig ventricular myocytes were isolated; endogenous in cells; host or cells: isolated guinea pig ventricular myocytes
T1 sequence (O08703 1-1294): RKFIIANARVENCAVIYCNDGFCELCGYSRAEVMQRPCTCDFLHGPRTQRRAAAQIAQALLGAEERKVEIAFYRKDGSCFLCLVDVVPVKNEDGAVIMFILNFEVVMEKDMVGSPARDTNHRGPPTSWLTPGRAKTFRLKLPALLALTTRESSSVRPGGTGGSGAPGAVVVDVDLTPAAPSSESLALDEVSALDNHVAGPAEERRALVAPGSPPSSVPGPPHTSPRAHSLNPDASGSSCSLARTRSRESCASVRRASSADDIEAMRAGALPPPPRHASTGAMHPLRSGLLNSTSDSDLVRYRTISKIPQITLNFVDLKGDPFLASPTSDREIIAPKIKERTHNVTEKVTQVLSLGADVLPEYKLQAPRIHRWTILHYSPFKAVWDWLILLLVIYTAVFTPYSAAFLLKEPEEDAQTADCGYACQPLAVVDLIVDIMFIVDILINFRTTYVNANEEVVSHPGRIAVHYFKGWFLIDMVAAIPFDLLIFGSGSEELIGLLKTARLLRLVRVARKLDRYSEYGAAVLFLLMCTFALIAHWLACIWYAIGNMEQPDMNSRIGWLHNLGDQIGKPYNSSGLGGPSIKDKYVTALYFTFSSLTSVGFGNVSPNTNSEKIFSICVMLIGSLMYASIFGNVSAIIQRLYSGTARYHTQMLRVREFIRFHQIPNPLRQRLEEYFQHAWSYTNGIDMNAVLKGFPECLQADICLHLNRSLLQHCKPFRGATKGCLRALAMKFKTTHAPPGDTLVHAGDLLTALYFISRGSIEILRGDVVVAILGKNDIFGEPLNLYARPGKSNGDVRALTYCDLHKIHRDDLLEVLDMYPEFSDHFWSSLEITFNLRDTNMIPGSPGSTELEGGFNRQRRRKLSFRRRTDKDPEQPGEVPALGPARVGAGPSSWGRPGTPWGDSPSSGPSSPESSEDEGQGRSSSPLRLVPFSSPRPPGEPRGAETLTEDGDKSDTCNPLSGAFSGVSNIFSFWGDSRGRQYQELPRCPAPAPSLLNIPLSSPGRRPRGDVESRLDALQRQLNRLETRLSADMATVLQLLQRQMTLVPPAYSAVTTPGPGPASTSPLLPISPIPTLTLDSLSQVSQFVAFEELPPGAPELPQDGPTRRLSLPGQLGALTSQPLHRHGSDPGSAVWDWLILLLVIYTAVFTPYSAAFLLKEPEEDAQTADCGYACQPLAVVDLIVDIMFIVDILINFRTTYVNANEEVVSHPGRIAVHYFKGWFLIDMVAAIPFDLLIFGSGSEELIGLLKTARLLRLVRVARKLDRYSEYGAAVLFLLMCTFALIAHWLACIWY
Description: Guinea pig ventricular myocytes were isolated using a modification of the procedure described by Mitra R and Morad M., "A Uniform Enzymatic Method for Dissociation of Myocytes from Hearts and Stomachs of Nertilorates", Am. J. Physiol. […] Excised hearts were perfused through the aorta (retrograde fashion) at a rate of 10 ml/min with oxygenated, warmed (37° C.) solutions described below. […] The head was then perfused with the same nominally Ca^2+ -free solution containing 150 units/ml Type II collagenase (Worthington) and 0.5 units/ml Type XIV protease (Sigma) for 8 minutes. This perfusate was followed by a Tyrode's solution containing 0.2 mM CaCl2 (without enzymes) for 5 minutes. The digested ventricles were cut into small pieces and gently shaken until cells were visibly dispersed. The cells were stored at room temperature until use, within 8 hours after isolation.
The suction microelectrode technique described by Giles, W. R. and Shibata, E. F., "Voltage clamp of bull-frog cardiac pacemaker cells: a quantitative, analysis of potassium currents". J. Physiol. […] Microelectrodes were made by using a two stage puller from square bore (1.0 mm o.d.) borosilicate capillary tubing. […] After establishing whole-cell recording mode, negative pressure was maintained on the pipette using a 1 ml gas-tight syringe attached via air tight tubing to the suction port of the microelectrode holder. This minimized dialysis of the cell with the pipette solution.
To record K^+ currents, the cells were bathed in a Ca^2+ -free Tyrode's :solution containing […] nisoldipine. […] A List EPC-7 clamp amplifier was used to voltage clamp the isolated cells. […] A variety of voltage pulse protocols were used to measure Ca^2+ current and three types of K^+ currents: inward rectifier (IK1), rapidly activating delayed rectifier (IKr) and the slowly activating delayed rectifier (IKs). Sanguinetti M. C. and Jurkiewicz, N. K., "Two components of cardiac delayed rectifier K^+ current: Differential sensitivity to block by Class III antiarrhythmic agents". […] Data was analyzed as % block from control membrane currents.
Nisoldipins was prepared as a 4 mM stock solution in polyethylne glycol 200. Compounds tested in this series were prepared as 10 mM stock solutions in polyethylene glycol 400 or dimethyl sulfoxide.

## Cc1cccc(NC(=O)N[C@@H]2N=C(c3ccccc3)c3ccccc3N(C)C2=O)c1 [Compound 4, (R)-N-(2,3-dihydro-1-methyl-2-oxo-5-phenyl-1H-1,4-benzodiazepin-3-yl)-N'-(3-methylphenyl)urea]
[1]
  other ECG or cardiovascular effects: no other ECG or cardiovascular effects
  prolongation of ECG QT interval: dose-related prolongation of ECG QT interval
[2]
  pIC50: ~5.30
[2]; 1 μM
  effect on IKr: Little or no effect
